# In patent publication US10258701B2, “Labeled evans blue dye derivative for in vivo serum albumin labeling” (The United States of America, as represented by the …, priority 2015, dated 2019):
# Key:
# [1] = Safety observation in healthy volunteers and patients; format: in vivo, human
# Source text: (§1) Dosimetry study confirmed the safety with acceptable absorbed doses by critical organs even with multiple injections for one patient.
# (§2) This clinical study was approved by the Institute Review Board of Peking Union Medical College Hospital, Chinese Academy of Medical Sciences and Peking Union Medical College. Three healthy volunteers (2 males and 1 female) were enrolled with written informed consent to validate the safety of ^68Ga-NEB. No fasting, hydration or other specific preparation was requested on the day of imaging. Any unusual or adverse clinical symptoms were recorded on the day of imaging and during the 2-week follow-up period.
# Vessel branches in and out of major organs and limbs can also be clearly identified.
# [2] = human, in vivo
# Source text: as §1
# (§3) A Siemens MMWP workstation was used for post-processing. Visual analysis was used to determine the general biodistribution and the temporal and inter-subject stability. The volume of interest (VOI) of 12 normal organs/tissues and concerned lesions were drawn on the serial images. The radioactivity concentration and standardized uptake value (SUV) in the VOIs were obtained through the software. Organ dosimetry was calculated by using organ-level internal dose assessment software. All quantitative data were expressed as mean±standard deviation.
# The mean absorbed radiation doses based on multiple time point PET imaging of three volunteers were similar to those based on mouse biodistribution data. The major organs that received relatively high doses were kidneys, liver, spleen, and heart wall. The bladder wall also received high exposure due to renal excretion of the radioactivity (0.0683±0.0090 mSv/MBq). The whole body absorbed dose was 0.0151±0.0001 mSv/MBq with an effective dose of 0.0179±0.0003 mSv/MBq.
# [3] = Ex vivo biodistribution in Balb/C mice with absorbed doses extrapolated to adult human male (OLINDA/EXM); conditions: mouse
# Method: For ex vivo biodistribution and dosimetry evaluation, each BALB/C mouse was injected with 1.85 MBq of ^68Ga-NEB. At different time points after tracer injection (5 min, 30 min, 1 h, 3 h and 6 h, n=5/time point), the mice were sacrificed for tissue and organ collection, including blood, muscle, bone, liver, kidneys, spleen, pancreas, stomach, intestine, heart and lung. The samples were wet weighed, and measured for radioactivity in a γ-counter (Wallac 1470-002, Perkin-Elmer). The results were presented as percentage injected dose per gram of tissue (% ID/g). For each mouse, the radioactivity of the tissue samples was calibrated against a known aliquot of the injected tracer and normalized to a mean body mass of each group. Values were expressed as mean±SD (n=5/group). Determination of organ doses for a reference human was made using the OLINDA/EXM program (Vanderbilt University, Nashville, Tenn.).
# In order to estimate the safe dose for clinical use, an ex vivo biodistribution study was performed in normal Balb/C mice. Absorbed doses for major organs and whole body were then extrapolated to adult human male of a body weight of 73.7 Kg using OLINDA EXM software. The kidneys received the highest absorbed doses (mean absorbed dose, 0.104˜0.135 mSv/MBq), resulting from abundant blood supply and tracer excretion through the renal urinary tract. The mean effective dose of ^68Ga-NEB was 0.0151 to 0.0159 mSv/MBq. With an injected dose of 185 MBq (5 mCi), the patient would be exposed to an effective radiation dose of 2.94 mSv, which is much lower than the dose limit of 20 mSv for the second risk category defined by the 2007 International Commission on Radiological Protection.
# [4] = Multiple time point whole-body PET in healthy volunteers (SUV); format: in vivo, human
# Method: as §2
# All three healthy volunteers underwent whole-body PET acquisitions (Biograph mCT PET/CT system, Siemens) at multiple time points after tracer injection. After the whole-body low-dose CT scan (140 kV, 35 mA, pitch 1:1, layer 5 mm, layer spacing 3 mm, matrix 512×512, FOV 70 cm), 111-148 MBq (3-4 mCi) of ^68Ga-NEB was injected intravenously. The whole body (from the top of skull to the middle of femur) of each volunteer was covered by 7 bed positions. The acquisition duration was 40 sec/bed position for the 5 min, 10 min and 15 min time points, 2 min/bed position for the 30 min, 45 min, 60 min, 75 min and 90 min time points.
# as §3
# From 5 to 90 min, no dramatic distribution change was observed, confirming the in vivo stability and long blood pool retention of ^68Ga-NEB (FIG. 28). Increased bladder accumulation was observed over time.
smiles,measurement,setting,value
Cc1cc(-c2ccc(NC(=O)CN3CCN4CCN(CC3)CC(=O)[O][68GaH][O]C(=O)C4)c(C)c2)ccc1N=Nc1ccc2c(S(=O)(=O)O)cc(S(=O)(=O)O)c(N)c2c1O [^68Ga-NEB],"reported discomfort, adverse clinical events, toxicity, allergies",[1]; all healthy volunteers and patients,"no discomfort or adverse clinical events, no elicited toxicity, and no allergies"
same,adverse symptoms during the entire procedure and 2 weeks follow-up,"[1]; healthy volunteers, mean injected dose 3.77±0.28 mCi",no adverse symptoms were noticed and/or reported
same,effective dose,[2],0.0179±0.0003 mSv/MBq
same,"mean absorbed radiation dose, bladder wall",[2],0.0683±0.0090 mSv/MBq
same,radiation dose a patient would be exposed to,[2],2.65 mSv
same,whole body absorbed dose,[2],0.0151±0.0001 mSv/MBq
same,"Absorbed Dose, Adrenals",[3]; BALB/c,0.0137~0.0141 mSv/MBq
same,"Absorbed Dose, Breasts",[3]; BALB/c,0.00881~0.01 mSv/MBq
same,"Absorbed Dose, Gallbladder Wall",[3]; BALB/c,0.0147~0.0149 mSv/MBq
same,"Absorbed Dose, Heart Wall",[3]; BALB/c,0.0329~0.0453 mSv/MBq
same,"Absorbed Dose, LLI Wall",[3]; BALB/c,0.0104~0.0119 mSv/MBq
same,"Absorbed Dose, Liver",[3]; BALB/c,0.0444~0.0575 mSv/MBq
same,"Absorbed Dose, Lungs",[3]; BALB/c,0.0197~0.0236 mSv/MBq
same,"Absorbed Dose, Muscle",[3]; BALB/c,0.00946~0.011 mSv/MBq
same,"Absorbed Dose, Osteogenic Cells",[3]; BALB/c,0.0133~0.0153 mSv/MBq
same,"Absorbed Dose, Ovaries",[3]; BALB/c,0.0108~0.0122 mSv/MBq
same,"Absorbed Dose, Pancreas",[3]; BALB/c,0.0625~0.0821 mSv/MBq
same,"Absorbed Dose, Red Marrow",[3]; BALB/c,0.00882~0.00973 mSv/MBq
same,"Absorbed Dose, Skin",[3]; BALB/c,0.00804~0.00925 mSv/MBq
same,"Absorbed Dose, Small Intestine",[3]; BALB/c,0.0114~0.0128 mSv/MBq
same,"Absorbed Dose, Spleen",[3]; BALB/c,0.0263~0.0317 mSv/MBq
same,"Absorbed Dose, Stomach Wall",[3]; BALB/c,0.0117~0.0127 mSv/MBq
same,"Absorbed Dose, Testes",[3]; BALB/c,0.00896~0.0103 mSv/MBq
same,"Absorbed Dose, Thymus",[3]; BALB/c,0.0101~0.0112 mSv/MBq
same,"Absorbed Dose, Thyroid",[3]; BALB/c,0.00936~0.0107 mSv/MBq
same,"Absorbed Dose, Total Body",[3]; BALB/c,0.0146~0.0146 mSv/MBq
same,"Absorbed Dose, ULI Wall",[3]; BALB/c,0.0115~0.0128 mSv/MBq
same,"Absorbed Dose, Urinary Bladder Wall",[3]; BALB/c,0.0102~0.0117 mSv/MBq
same,"Absorbed Dose, Uterus",[3]; BALB/c,0.0108~0.0123 mSv/MBq
same,Effective Dose Equivalent,[3]; BALB/c,0.0251~0.0297 mSv/MBq
same,effective radiation dose to the patient,[3],2.94 mSv
same,"average standardized uptake value, Blood",[4]; 5 min after i.v.,7.97 ± 0.15
same,"average standardized uptake value, Bone",[4]; 5 min after i.v.,2.10 ± 0.26
same,"average standardized uptake value, Kidneys",[4]; 5 min after i.v.,4.40 ± 0.26
same,"average standardized uptake value, Liver",[4]; 5 min after i.v.,3.80 ± 0.44
same,"average standardized uptake value, Lung",[4]; 5 min after i.v.,1.53 ± 0.15
same,"average standardized uptake value, Muscle",[4]; 5 min after i.v.,0.53 ± 0.21
same,"average standardized uptake value, Pancreas",[4]; 5 min after i.v.,2.13 ± 0.40
same,"average standardized uptake value, S. Intestine",[4]; 5 min after i.v.,1.73 ± 0.25
same,"average standardized uptake value, Spleen",[4]; 5 min after i.v.,4.10 ± 0.36
same,"average standardized uptake value, Stomach",[4]; 5 min after i.v.,1.23 ± 0.15
same,"average standardized uptake value, Blood",[4]; 10 min after i.v.,7.53 ± 0.25
same,"average standardized uptake value, Bone",[4]; 10 min after i.v.,1.93 ± 0.12
same,"average standardized uptake value, Kidneys",[4]; 10 min after i.v.,4.23 ± 0.49
same,"average standardized uptake value, Liver",[4]; 10 min after i.v.,3.70 ± 0.61
same,"average standardized uptake value, Lung",[4]; 10 min after i.v.,1.47 ± 0.29
same,"average standardized uptake value, Muscle",[4]; 10 min after i.v.,0.60 ± 0.10
same,"average standardized uptake value, Pancreas",[4]; 10 min after i.v.,2.03 ± 0.15
same,"average standardized uptake value, S. Intestine",[4]; 10 min after i.v.,1.57 ± 0.12
same,"average standardized uptake value, Spleen",[4]; 10 min after i.v.,4.07 ± 0.47
same,"average standardized uptake value, Stomach",[4]; 10 min after i.v.,1.50 ± 0.20
same,"average standardized uptake value, Blood",[4]; 15 min after i.v.,7.17 ± 0.35
same,"average standardized uptake value, Bone",[4]; 15 min after i.v.,1.83 ± 0.15
same,"average standardized uptake value, Kidneys",[4]; 15 min after i.v.,4.03 ± 0.50
same,"average standardized uptake value, Liver",[4]; 15 min after i.v.,3.73 ± 0.59
same,"average standardized uptake value, Lung",[4]; 15 min after i.v.,1.4 ± 0.17
same,"average standardized uptake value, Muscle",[4]; 15 min after i.v.,0.60 ± 0.17
same,"average standardized uptake value, Pancreas",[4]; 15 min after i.v.,1.90 ± 0.26
same,"average standardized uptake value, S. Intestine",[4]; 15 min after i.v.,1.73 ± 0.12
same,"average standardized uptake value, Spleen",[4]; 15 min after i.v.,4.00 ± 0.52
same,"average standardized uptake value, Stomach",[4]; 15 min after i.v.,1.23 ± 0.12
same,"average standardized uptake value, Blood",[4]; 30 min after i.v.,6.93 ± 0.21
same,"average standardized uptake value, Bone",[4]; 30 min after i.v.,1.67 ± 0.15
same,"average standardized uptake value, Kidneys",[4]; 30 min after i.v.,3.77 ± 0.29
same,"average standardized uptake value, Liver",[4]; 30 min after i.v.,3.57 ± 0.46
same,"average standardized uptake value, Lung",[4]; 30 min after i.v.,1.30 ± 0.17
same,"average standardized uptake value, Muscle",[4]; 30 min after i.v.,0.57 ± 0.12
same,"average standardized uptake value, Pancreas",[4]; 30 min after i.v.,1.67 ± 0.15
same,"average standardized uptake value, S. Intestine",[4]; 30 min after i.v.,1.63 ± 0.15
same,"average standardized uptake value, Spleen",[4]; 30 min after i.v.,3.90 ± 0.61
same,"average standardized uptake value, Stomach",[4]; 30 min after i.v.,1.23 ± 0.06
same,"average standardized uptake value, Blood",[4]; 45 min after i.v.,6.70 ± 0.26
same,"average standardized uptake value, Bone",[4]; 45 min after i.v.,1.50 ± 0.20
same,"average standardized uptake value, Kidneys",[4]; 45 min after i.v.,3.87 ± 0.32
same,"average standardized uptake value, Liver",[4]; 45 min after i.v.,3.50 ± 0.52
same,"average standardized uptake value, Lung",[4]; 45 min after i.v.,1.30 ± 0.20
same,"average standardized uptake value, Muscle",[4]; 45 min after i.v.,0.53 ± 0.06
same,"average standardized uptake value, Pancreas",[4]; 45 min after i.v.,1.67 ± 0.15
same,"average standardized uptake value, S. Intestine",[4]; 45 min after i.v.,1.63 ± 0.06
same,"average standardized uptake value, Spleen",[4]; 45 min after i.v.,3.77 ± 0.57
same,"average standardized uptake value, Stomach",[4]; 45 min after i.v.,1.23 ± 0.06
same,"average standardized uptake value, Blood",[4]; 60 min after i.v.,6.20 ± 0.17
same,"average standardized uptake value, Bone",[4]; 60 min after i.v.,1.37 ± 0.06
same,"average standardized uptake value, Kidneys",[4]; 60 min after i.v.,3.60 ± 0.10
same,"average standardized uptake value, Liver",[4]; 60 min after i.v.,3.47 ± 0.47
same,"average standardized uptake value, Lung",[4]; 60 min after i.v.,1.23 ± 0.06
same,"average standardized uptake value, Muscle",[4]; 60 min after i.v.,0.50 ± 0.00
same,"average standardized uptake value, Pancreas",[4]; 60 min after i.v.,1.43 ± 0.15
same,"average standardized uptake value, S. Intestine",[4]; 60 min after i.v.,1.47 ± 0.15
same,"average standardized uptake value, Spleen",[4]; 60 min after i.v.,3.73 ± 0.42
same,"average standardized uptake value, Stomach",[4]; 60 min after i.v.,1.10 ± 0.00
same,"average standardized uptake value, Blood",[4]; 75 min after i.v.,6.03 ± 0.12
same,"average standardized uptake value, Bone",[4]; 75 min after i.v.,1.27 ± 0.12
same,"average standardized uptake value, Kidneys",[4]; 75 min after i.v.,3.43 ± 0.15
same,"average standardized uptake value, Liver",[4]; 75 min after i.v.,3.43 ± 0.49
same,"average standardized uptake value, Lung",[4]; 75 min after i.v.,1.10 ± 0.17
same,"average standardized uptake value, Muscle",[4]; 75 min after i.v.,0.47 ± 0.06
same,"average standardized uptake value, Pancreas",[4]; 75 min after i.v.,1.37 ± 0.21
same,"average standardized uptake value, S. Intestine",[4]; 75 min after i.v.,1.33 ± 0.21
same,"average standardized uptake value, Spleen",[4]; 75 min after i.v.,4.93 ± 2.10
same,"average standardized uptake value, Stomach",[4]; 75 min after i.v.,1.07 ± 0.12
same,"average standardized uptake value, Blood",[4]; 90 min after i.v.,5.97 ± 0.15
same,"average standardized uptake value, Bone",[4]; 90 min after i.v.,1.23 ± 0.15
same,"average standardized uptake value, Kidneys",[4]; 90 min after i.v.,3.30 ± 0.20
same,"average standardized uptake value, Liver",[4]; 90 min after i.v.,3.33 ± 0.58
same,"average standardized uptake value, Lung",[4]; 90 min after i.v.,1.07 ± 0.12
same,"average standardized uptake value, Muscle",[4]; 90 min after i.v.,0.77 ± 0.64
same,"average standardized uptake value, Pancreas",[4]; 90 min after i.v.,1.37 ± 0.31
same,"average standardized uptake value, S. Intestine",[4]; 90 min after i.v.,1.17 ± 0.32
same,"average standardized uptake value, Spleen",[4]; 90 min after i.v.,3.57 ± 0.55
same,"average standardized uptake value, Stomach",[4]; 90 min after i.v.,1.03 ± 0.15
same,crossing of the blood-brain barrier,"[4]; PET, normal brain tissue negligible accumulation",does not cross the blood-brain barrier
